According to PubChem BioAssay (NCI):
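In this assay, cells in 96-well plates receive the compound at five concentrations for 48 hours. Endpoints are linearly interpolated between the surrounding concentrations. TGI: concentration producing complete growth inhibition.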

Tests used:
Test in all cases: DTP human tumour cell line panel, 48 h
SK-OV-3 ovarian = system: SK-OV-3 ovarian
IGROV1 ovarian = system: IGROV1 ovarian
SK-MEL-2 melanoma = system: SK-MEL-2 melanoma
SNB-19 CNS = system: SNB-19 CNS
HOP-92 NSCLC = system: HOP-92 NSCLC
SNB-75 CNS = system: SNB-75 CNS
KM12 colon = system: KM12 colon
CCRF-CEM leukemia = system: CCRF-CEM leukemia
EKVX NSCLC = system: EKVX NSCLC
A549 NSCLC = system: A549 NSCLC
HCC-2998 colon = system: HCC-2998 colon
PC-3 prostate = system: PC-3 prostate
OVCAR-8 ovarian = system: OVCAR-8 ovarian
SF-268 CNS = system: SF-268 CNS
SK-MEL-5 melanoma = system: SK-MEL-5 melanoma
SK-MEL-28 melanoma = system: SK-MEL-28 melanoma
COLO 205 colon = system: COLO 205 colon
MDA-N = system: MDA-N
MALME-3M melanoma = system: MALME-3M melanoma
UACC-257 melanoma = system: UACC-257 melanoma
RXF 393 renal = system: RXF 393 renal
786-0 renal = system: 786-0 renal
ACHN renal = system: ACHN renal
DU-145 prostate = system: DU-145 prostate
A498 renal = system: A498 renal
UO-31 renal = system: UO-31 renal
CAKI-1 renal = system: CAKI-1 renal
HOP-62 NSCLC = system: HOP-62 NSCLC
OVCAR-5 ovarian = system: OVCAR-5 ovarian
NCI-H226 lung = system: NCI-H226 lung
HL-60(TB) leukemia = system: HL-60(TB) leukemia
SF-295 CNS = system: SF-295 CNS
K-562 leukemia = system: K-562 leukemia
SW-620 colon = system: SW-620 colon
SR leukemia = system: SR leukemia
NCI-H460 lung = system: NCI-H460 lung
MOLT-4 leukemia = system: MOLT-4 leukemia
OVCAR-3 ovarian = system: OVCAR-3 ovarian
MDA-MB-231 breast = system: MDA-MB-231 breast
RPMI-8226 leukemia = system: RPMI-8226 leukemia
NCI-H23 lung = system: NCI-H23 lung
BT-549 breast = system: BT-549 breast
M14 melanoma = system: M14 melanoma
SN12C renal = system: SN12C renal
UACC-62 melanoma = system: UACC-62 melanoma
NCI/ADR-RES ovarian = system: NCI/ADR-RES ovarian
HCT-15 colon = system: HCT-15 colon
TK-10 renal = system: TK-10 renal

COc1ccc(-c2cc(-c3ccc(Nc4ccnc5cc(Cl)ccc45)cc3)[nH]c(=O)c2C#N)c2ccccc12
TGI (SK-OV-3 ovarian): 43.7 µM
TGI (IGROV1 ovarian): > 79.1 µM
TGI (SK-MEL-2 melanoma): > 100 µM
TGI (SNB-19 CNS): > 23.4 µM
TGI (HOP-92 NSCLC): 30.8 µM
TGI (SNB-75 CNS): 95.4 µM
TGI (KM12 colon): > 100 µM
TGI (CCRF-CEM leukemia): > 100 µM
TGI (EKVX NSCLC): > 100 µM
TGI (A549 NSCLC): > 52.9 µM
TGI (HCC-2998 colon): > 92.9 µM
TGI (PC-3 prostate): > 100 µM
TGI (OVCAR-8 ovarian): 5.41 µM
TGI (SF-268 CNS): > 96.6 µM
TGI (SK-MEL-5 melanoma): > 63.4 µM
TGI (SK-MEL-28 melanoma): 42.3 µM
TGI (COLO 205 colon): 6.89 µM
TGI (MDA-N): 6.02 µM
TGI (MALME-3M melanoma): 8.01 µM
TGI (UACC-257 melanoma): 99.4 µM
TGI (RXF 393 renal): 28.3 µM
TGI (786-0 renal): 18.3 µM
TGI (ACHN renal): > 100 µM
TGI (DU-145 prostate): > 32.7 µM
TGI (A498 renal): 49.7 µM
TGI (UO-31 renal): 15.2 µM
TGI (CAKI-1 renal): 48.4 µM
TGI (HOP-62 NSCLC): > 53.9 µM
TGI (OVCAR-5 ovarian): > 100 µM
TGI (NCI-H226 lung): > 100 µM
TGI (HL-60(TB) leukemia): 6.04 µM
TGI (SF-295 CNS): > 50.1 µM
TGI (K-562 leukemia): 6.35 µM
TGI (SW-620 colon): > 100 µM
TGI (SR leukemia): 2.6 µM
TGI (NCI-H460 lung): > 100 µM
TGI (MOLT-4 leukemia): 6.17 µM
TGI (OVCAR-3 ovarian): 5.34 µM
TGI (MDA-MB-231 breast): 51.1 µM
TGI (RPMI-8226 leukemia): 7.28 µM
TGI (NCI-H23 lung): > 91.6 µM
TGI (BT-549 breast): 71.7 µM
TGI (M14 melanoma): 4.93 µM
TGI (SN12C renal): 46.9 µM
TGI (UACC-62 melanoma): 46.7 µM
TGI (NCI/ADR-RES ovarian): > 100 µM
TGI (HCT-15 colon): > 100 µM
TGI (TK-10 renal): 29.7 µM
